Entries after “also recorded” stand apart in the source; their conditions may differ. Structures can show the parent of a compound that is named as a salt.
What was measured:
[1] = biological target: T1, isolated tracheal spirals of the guinea pig (Cavia porcellus, UniProt H0W1Z3); test: anticholinergic effectiveness on isolated tracheal spirals (antagonism against acetyl-β-methylcholine chloride); details: for antagonism against acetyl-β-methylcholine chloride / anticholinergic effectiveness (in words): isolated guinea pig tracheal spirals
T1 construct: the whole of the trachea is roughly freed beginning from the larynx up to the tracheal bifurcation, removed and transferred; from tissue; host or cells: isolated trachea (spiral strips) of male Pirbright white guinea pigs
T1 sequence (H0W1Z3 1-590): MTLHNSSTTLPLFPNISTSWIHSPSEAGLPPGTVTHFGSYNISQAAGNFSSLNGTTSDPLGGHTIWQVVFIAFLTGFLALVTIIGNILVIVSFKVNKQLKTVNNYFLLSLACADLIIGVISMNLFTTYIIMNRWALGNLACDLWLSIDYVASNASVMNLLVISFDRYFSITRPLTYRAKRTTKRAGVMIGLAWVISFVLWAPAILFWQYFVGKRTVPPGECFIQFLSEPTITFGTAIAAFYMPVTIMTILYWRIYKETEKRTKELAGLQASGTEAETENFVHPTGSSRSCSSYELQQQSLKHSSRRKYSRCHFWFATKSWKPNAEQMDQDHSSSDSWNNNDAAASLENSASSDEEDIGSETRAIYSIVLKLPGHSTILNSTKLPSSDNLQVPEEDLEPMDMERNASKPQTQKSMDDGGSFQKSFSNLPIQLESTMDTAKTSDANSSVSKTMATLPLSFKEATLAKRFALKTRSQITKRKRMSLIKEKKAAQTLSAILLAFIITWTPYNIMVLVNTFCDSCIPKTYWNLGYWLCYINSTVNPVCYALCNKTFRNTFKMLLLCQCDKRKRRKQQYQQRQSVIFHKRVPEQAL
From the text: A model for this is the measurement of the anticholinergic effectiveness on isolated tracheal spirals of the guinea pig.
The test substance used was 3α-benziloyloxynortropane-8-spiro-1'-pyrrolidinium chloride (trospium chloride; MP 194), ipratropium bromide being used as comparison substance.
There is to be determined the anticholinergic effectiveness of MP 194 in comparison with the reference substance ipratropium bromide on the isolated tracheal spirals of the guinea pig.
3.1.1. animal species: guinea pig
3.1.2. animal strain: Pirbright white
3.3.1. test substance (test antagonist) trospium chloride (MP 194) (M.W. 428)
3.3.2. reference substance (reference antagonist) ipratropium bromide (Atrovent) (M.W. 412.4)
3.3.3.1. acetyl-β-methylcholine chloride (Sigma) (M.W. 195.7)
The guinea pig is stunned by a blow on the neck. Subsequently, the whole of the trachea is roughly freed beginning from the larynx up to the tracheal bifurcation, removed and transferred to tempered (37° C.) and carbogenized tyrode solution. After surrounding connective tissue has been removed as far as possible, the preparation is cut up spirally by means of fine scissors at an angle of about 45° and separated into two equal sized sections. After weighing, both preparations are provided proximally and distally with a silk thread. One thread serves for fixing the preparation by means of a loop to the bottom of the bath and the other is connected via a hook with the transducer above the bath vessel.
Subsequently, the preparations, corresponding to the calibration, are prestressed with about 80 mN and equilibrated from 50-100 minutes. During the equilibration phase, the nutrient solution in the bath vessels is renewed in 15 minute intervals. As soon as the resting muscle tonus of the preparation has stabilized, there takes place the cumulative addition of the agonist, whereby the addition of the next highest concentration first takes place when no further increase of contraction is recognisable (plateau). When the maximum contraction height of the preparation is achieved, the cumulative agonist addition is ended and the preparation is rinsed. After a further equilibration phase (v. supra), the cumulative addition of the agonist is repeated but this time in the presence of the test or reference antagonist.
3.6.1. The perfusion part consists of an L-shaped organ bath in the hollow space of which (longer limb) runs a double glass spiral through which the nutrient solution is passed into the actual bath vessel (28 ml. content; shorter limb). This bath vessel is divided into two chambers which are, however, connected together by two transverse connections. […] The inlet chambers as well as the feeding glass spirals are tempered from the outside to 37° C. by a separate liquid circulation. This tempering takes place with the help of a "Colora" ultra-thermostat type K (Colora Messtechnik GmbH, Dusseldorf, Germany) which serves as thermostat and pump. In order, in case of need, always to have available ready-for-use nutrient solution, above the organ bath is provided a double-walled storage container in which the nutrient solution is also tempered and carbogenised. This is connected via a glass stopcock and a polypropylene tube with double glass spiral in the interior of the organ bath.
3.6.2. The measurement and recording part includes a transducer (Statham-Universal-Zelle UC-2; Hugo Sachs Elektronic KG, Hugstetten, Germany). By means of a hanging-in weight, a force of 40 mN is produced on the transducer which passes as electrical signal via a connecting cable to a bridge amplifier. The amplification is smoothly so regulated that the force provided corresponds to a constant value on the scale or an analogous value on the millimeter paper of the recorder (dependent upon the amplification; see below). After fixing the organ, the preparation is prestressed to the doubled mark, corresponding to 80 mN. […]

[2] = test system: awake guinea pig (cholinergically-induced bronchial cramps); test: inhalative provocation with acetyl-β-methylcholine chloride aerosol on awake guinea pigs (broncholytic/protective action); format: in vivo; details: for EC50: Cavia porcellus, read-out: EC50, average effective concentration w of acetyl-β-methylcholine chloride (provocation substance) after pre-treatment; for probit analysis reaction % observed: animals reacting with dyspnoea; for probit analysis reaction % calculated: probit regression
Procedure: animal strain: Pirbright white test substance: trospium chloride (MP 194) (M.W. 428) dosage: 3×10^-7 mole ml^-1 kg^-1 mode of administration: intraperitoneally test substance: dehydrotrospium chloride (WG 71) (M.W. 426) […]
reference substance: atropine hydrochloride (Serva; M.W. 325.8) […]
reference substance: isoproterenol (Fluka; M.W. 247.72) dosage: […]
further substances: acetyl-β-methylcholine chloride (Sigma; M.W. 195.7) mode of administration: 0.5 ml. min^-1 by inhalation.
The guinea pigs intended for an experiment are, after an acclimatization time of at least 8 days, subjected twice to an aerosol of 0.1% acetyl-β-methylcholine chloride solution since, as is known from experience, during the first two inhalative provocations, the animals react with more distinct respiratory disturbances than in the case of the subsequent provocations (adaptation). If, in the case of the two inhalation phases, a nonsensitivity (absence of respiratory disturbances) is observed towards the exposure, these animals are excluded from the actual experiment.
For the purpose of aerosol provocation, the guinea pigs are placed individually in an inhalation chamber (see Section 3.6 hereinafter) in which 0.5 ml. of solution per minute are atomized as droplet aerosol by means of a special nozzle (Rhema, Hofheim, Germany). […] With the help of a stopwatch, there is recorded the time from the commencement of inhalation to the appearance of the asphyctic state; the animals are immediately removed from the inhalation chamber and, as a rule, recover in a very short period of time (recovery of consciousness and normalization of breathing). If, within 180 seconds, no dysponea occurs, the inhalation is discontinued.
One aerosol concentration is tested per test day; the time between the individual aerosol provocations is at least 1 week.
The inhalation chamber is a Plexiglass container specially made for this purpose, the lid of which can be closed in an air-tight manner by means of rubber sealing and grip closure means. The internal measurements of the chamber are 285×190×180 mm., which corresponds to a volume of about 9.75 liters. The special nozzle (Rhema, Hofheim, Germany, order No. 504104) is fixed to a recess on the lid and ensures a uniform supply of the available chamber space with the aerosol. The provocation solution is supplied to the nozzle via an infusion pump (Braun, Melsungen, Germany) (0.5 ml./minute) and there atomized with a superpressure of 180 kPa from an attached pressure gas bottle (artificial air, KW-free). For reasons of safety, the aerosol provocation is carried out under a ventilator.
The EC50, as well as the related confidence interval (p>95%), are determined from the probit regression lines of the percentage values (v. supra) provided with weight coefficients after line adaptation by the "maximum likelihood" method (10 iterations). Furthermore, there is examined the adaptation of the lines to the observed data by means of the chiquadrat test. For the evaluation, a calculation programme is commercially available (Olivetti).

[3] = pre-treatment 3×10^-7 mol ml^-1 kg^-1 i.p., 15 min before inhalation, w of acetyl-β-methylcholine chloride in atomised solution, control animals w=0.000539, higher = more protection
[4] = acetyl-β-methylcholine chloride w=0.000562, 10 tested, pre-treatment 3×10^-7 mol ml^-1 kg^-1 i.p.
[5] = acetyl-β-methylcholine chloride w=0.000562, pre-treatment 3×10^-7 mol ml^-1 kg^-1 i.p.
[6] = acetyl-β-methylcholine chloride w=0.001000, 10 tested (isoproterenol 9), pre-treatment 3×10^-7 mol ml^-1 kg^-1 i.p.
[7] = acetyl-β-methylcholine chloride w=0.001000, pre-treatment 3×10^-7 mol ml^-1 kg^-1 i.p.
[8] = acetyl-β-methylcholine chloride w=0.001780, pre-treatment 3×10^-7 mol ml^-1 kg^-1 i.p.
[9] = acetyl-β-methylcholine chloride w=0.001780, trospium chloride 10 tested, dehydrotrospium chloride 9, atropine 9, isoproterenol 8, pre-treatment 3×10^-7 mol ml^-1 kg^-1 i.p.
[10] = acetyl-β-methylcholine chloride w=0.003160, 10 tested (isoproterenol 9), pre-treatment 3×10^-7 mol ml^-1 kg^-1 i.p.
[11] = acetyl-β-methylcholine chloride w=0.003160, pre-treatment 3×10^-7 mol ml^-1 kg^-1 i.p.
[12] = acetyl-β-methylcholine chloride w=0.005620, 10 tested (isoproterenol 9), pre-treatment 3×10^-7 mol ml^-1 kg^-1 i.p.
[13] = acetyl-β-methylcholine chloride w=0.005620, pre-treatment 3×10^-7 mol ml^-1 kg^-1 i.p.

Compound | EC50 [2, 3] [µg/mL] | number of animals reacting [2, 4] | probit analysis reaction % calculated [2, 5] [%] | number of animals reacting [2, 6] | probit analysis reaction % observed [2, 7] [%] | probit analysis reaction % calculated [2, 7] [%] | probit analysis reaction % observed [2, 8] [%] | probit analysis reaction % calculated [2, 8] [%] | number of animals reacting [2, 9] | number of animals reacting [2, 10] | probit analysis reaction % observed [2, 11] [%] | probit analysis reaction % calculated [2, 11] [%] | number of animals reacting [2, 12] | probit analysis reaction % observed [2, 13] [%] | probit analysis reaction % calculated [2, 13] [%] | further results
CN1[C@@H]2CC[C@H]1C[C@@H](OC(=O)C(CO)c1ccccc1)C2 (stereo partly shown) [atropine chloride, atropine hydrochloride, reference compound] | 1380 | 3 | 38.93 | 6 | 60.00 | 45.98 | 55.56 | 53.16 | 5 | 5 | 50.00 | 60.20 | 7 | 70.00 | 66.95 | antagonism against acetyl-β-methylcholine chloride / anticholinergic effectiveness (in words) [1]: dosage dependent antagonism; probit analysis reaction % observed [2, 5]: 30.00%; EC50, average effective concentration w of acetyl-β-methylcholine chloride (provocation substance) after pre-treatment [2, 3]: 0.00138
O=C(O[C@H]1C[C@H]2CC[C@@H](C1)[N+]21CCCC1)C(O)(c1ccccc1)c1ccccc1 [trospium chloride, 3α-benziloyloxynortropane-8-spiro-1'-pyrrolidinium chloride] | 2860 | 0 | 5.46 | 1 | 10.00 | 15.03 | 50.00 | 32.00 | 5 | 5 | 50.00 | 53.87 | 7 | 70.00 | 74.66 | Kb ([1]; antagonism against acetyl-β-methylcholine chloride, read-out: pA2 ± s (converted)): 0.55 nM; quality of the antagonism (in words) ([1]; comparison of maximum effects in absence and presence of the antagonist, listed as MP 194): competitively antagonistically effective; also recorded: competitive antagonism; strength of activity compared with ipratropium bromide (in words) ([1]; comparison of pA2 values, t-test, listed as MP 194): equivalent to the reference substance ipratropium bromide; also recorded: does not differ significantly; also recorded: equal to the reference substance ipratropium bromide; antagonism against acetyl-β-methylcholine chloride / anticholinergic effectiveness (in words) ([1]; listed as MP 194): comparable, dosage-dependent antagonism; also recorded: clear anticholinergic effectiveness; broncholytic effectiveness compared with atropine and isoproterenol (in words) ([2]; 15 min after i.p. administration, equimolar dosages): comparable with or superior to the well known parasympatholytics atropine and the β-sympathomimetic isoproterenol; also recorded: greater effectiveness of the test substances, especially of trospium chloride, in comparison with the reference substances; probit analysis reaction % observed, correction according to Bliss ([2]; guinea pig, in vivo): 2.50; broncholytic effect (in words) ([2]; intraperitoneal, cholinergically-induced bronchial cramps, awake guinea pig): outstanding broncholytic effect

Source: US4780476A, “Azoniaspironortropanol esters as asthma therapeutics and broncholytics” (Madaus GmbH & Co., priority 1985, dated 1988)
